Article PMC11091889, “Silver Organometallics that are Highly Potent Thioredoxin and Glutathione Reductase Inhibitors: Exploring the Correlations of Solution Chemistry with the Strong Antibacterial Effects” (ACS Infectious Diseases, 2024)

Experiments:
[1] = Conductometry: molar conductivity of silver complexes in DMSO; format: physicochemical; conditions: 1.0 mM in DMSO, calculated as monocarbene (NHC)AgX
Method: Since both the neutral monocarbene and the ionic biscarbene form of the complexes may exist in various proportions in the solution, conductometry studies were performed to reveal the dominant structure. The molar conductivity of 1.0 mM solutions of each complex in DMSO was determined after different periods up to 24 h using AgNO3 as 1:1 electrolyte reference (see Table 1). According to the literature, the expected range of molar conductivity for 1:1 electrolytes in DMSO is 35–90 S cm^2 mol^–1.[45],[46]
Conductivity measurements were performed using an Apera Instruments EC9500 conductivity meter. Solutions (as indicated, otherwise 1.0 mM) of all compounds were prepared using freshly distilled DMSO with a specific electrical conductivity of ≤3 × 10^–8 S cm^–1. The conductivities were measured at 25 ± 2 °C immediately after complete dissolution and after 24 h.

[2] = system: E. coli (DSM1116, ATCC 9637); assay: microbe, parasite or virus in culture; format: cell-based, Escherichia coli; conditions: n = 3, MHB; for EC50 / MIC E. coli: mean ± standard error; for MIC E. coli / MIC E. coli (value in brackets): 22 h
Method: (§1) The antibacterial effect of the silver NHC complexes and selected ligands was evaluated in two Gram-positive [Enterococcus faecium, methicillin resistant S. aureus, (MRSA)] and in four Gram-negative (Acinetobacter baumannii, Escherichia coli, Klebsiella pneumoniae, and Pseudomonas aeruginosa) pathogenic bacterial strains using broth microdilution assays. The resulting minimal inhibitory concentrations (MICs, Table 2) and EC50 (Table S6) were determined by a curve fitting procedure. Silver nitrate (AgNO3), SSD, and various antibiotics were used as references.
(§2) The following strains of ESKAPE panel were utilized and maintained at 37 °C in MHB (21 g/L Müller Hinton broth, pH 7.4) or TSY (30 g/L trypticase soy broth, 3 g/L yeast extract, pH 7.0–7.2) media: A. baumannii (DSM 30007, ATCC 19606), E. coli (DSM1116, ATCC 9637), K. pneumoniae (DSM 11678, ATCC33495), P. aeruginosa PA7 (DSM 24068) in MHB; E. faecium (DSM 20477, ATCC 19434), and S. aureus MRSA (DSM 11822, ICB 25701) in TSY. MIC values were determined following a standardized protocol in broth microdilution assays. The compounds and reference substances (AgNO3 and SSD) were serially diluted from 64 to 1 μg/mL. Starting inocula of 2–8 × 10^5 CFU/mL in MHB or TSY media at 37 °C were used, and serial dilutions were carried out in 96-well microtiter plates in duplicate. After incubation of the plates for 22 h at 37 °C, the absorbance at 600 nm was measured using The Spark multimode microplate reader (Tecan Trading AG). The MIC values for the tested compounds were determined in three independent experiments and presented in μM with standard errors and also in μg/mL. Amikacin (P. aeruginosa), linezolid (S. aureus), and ciprofloxacin (all other strains) served as positive controls. The MIC and EC50 values were determined by curve fitting with Sigma Plot. To determine the effect of the culture medium on the activity of silver compounds, the assay was performed using MHB, TSY, or DMEM (Gibco). To observe the effect of individual components of TSY medium, antibacterial tests were performed using MHB with addition of tryptone (17 g/L) or yeast extract (3 g/L, both were purchased from Sigma).

[3] = system: P. aeruginosa PA7 (DSM 24068); assay: microbe, parasite or virus in culture; format: cell-based, Pseudomonas aeruginosa; conditions: n = 3, MHB; for MIC P. aeruginosa / EC50: mean ± standard error; for MIC P. aeruginosa / MIC P. aeruginosa (value in brackets): 22 h; for EC50: read-out: EC50 P. aeruginosa
Method: as §1, §2

[4] = system: K. pneumoniae (DSM 11678, ATCC33495); assay: Broth microdilution antibacterial assay; format: cell-based, Klebsiella pneumoniae; conditions: n = 3, MHB; for MIC K. pneumoniae / EC50: mean ± standard error; for MIC K. pneumoniae / MIC K. pneumoniae (value in brackets): 22 h; for EC50: read-out: EC50 K. pneumoniae
Method: as §1, §2

[5] = system: A. baumannii (DSM 30007, ATCC 19606); assay: Broth microdilution antibacterial assay; format: cell-based, Acinetobacter baumannii; conditions: n = 3, MHB; for MIC A. baumannii / EC50: mean ± standard error; for MIC A. baumannii / MIC A. baumannii (value in brackets): 22 h; for EC50: read-out: EC50 A. baumannii
Method: as §1, §2

[6] = system: S. aureus MRSA (DSM 11822, ICB 25701); assay: microbe, parasite or virus in culture; format: cell-based, methicillin resistant S. aureus; conditions: n = 3, TSY; for MIC MRSA / EC50: mean ± standard error; for MIC MRSA / MIC MRSA (value in brackets): 22 h; for EC50: read-out: EC50 MRSA
Method: as §1
The importance of the culture medium used in antibacterial assays has been pointed out for antibiotics and in particular for silver.[53]−[55] In our recent studies, tryptic soy yeast (TSY) broth has been used for growing Gram-positive bacteria. Two components thereof, tryptone and yeast extract, have been reported to affect the antibacterial activity of silver nitrate.[55] Moreover, such an effect was also observed for other media containing at least one of those components.[11],[53] […] Silver nitrate served as a reference, and three different growth media were studied, namely, Müller-Hinton Broth (MHB, commonly used for Gram-negative bacteria), TSY broth (commonly used for Gram-positive bacteria), and DMEM supplemented with 10% FCS (commonly used for growth of mammalian and human cells).
as §2

[7] = system: E. faecium (DSM 20477, ATCC 19434); assay: Broth microdilution antibacterial assay; format: cell-based, Enterococcus faecium; conditions: n = 3, TSY; for MIC E. faecium / EC50: mean ± standard error; for MIC E. faecium / MIC E. faecium (value in brackets): 22 h; for EC50: read-out: EC50 E. faecium
Method: as §1, §2

SMILES | Molar conductivity ΛM ([1]; 1 h after dissolution) | Molar conductivity ΛM ([1]; 24 h after dissolution) | EC50 [2] | MIC E. coli [2] | MIC E. coli (value in brackets) [2] | MIC P. aeruginosa [3] | EC50 [3] | MIC P. aeruginosa (value in brackets) [3] | MIC K. pneumoniae [4] | EC50 [4] | MIC K. pneumoniae (value in brackets) [4] | MIC A. baumannii [5] | EC50 [5] | MIC A. baumannii (value in brackets) [5] | MIC MRSA [6] | EC50 [6] | MIC MRSA (value in brackets) [6] | MIC E. faecium [7] | EC50 [7] | MIC E. faecium (value in brackets) [7]
CCn1[c](=[Ag][Cl])n(Cc2ccccn2)c2ccccc21 [2a, Chlorido (1-Ethyl-3-(pyridin-2-ylmethyl)-benzimidazol-2-ylidene) Silver(I)] | 3.47 S cm^2 mol^–^1 | 3.03 S cm^2 mol^–^1 | 33.3 ± 4.7 µM | 56.0 ± 14.0 µM | 21 µg/mL | 10.5 ± 0.0 µM | 6.4 ± 0.5 µM | 4 µg/mL | 17.5 ± 3.5 µM | 12 ± 0.9 µM | 7 µg/mL | 10.5 ± 0.0 µM | 2.4 ± 0.1 µM | 4 µg/mL | 168 ± 0.0 µM | 98.5 ± 0.8 µM | 64 µg/mL | 168 ± 0.0 µM | 132 ± 6.8 µM | 64 µg/mL
CCn1[c](=[Ag][Br])n(Cc2ccccn2)c2ccccc21 [2b, Bromido (1-Ethyl-3-(pyridin-2-ylmethyl)-benzimidazol-2-ylidene) Silver(I)] | 5.47 S cm^2 mol^–^1 | 5.07 S cm^2 mol^–^1 | 35.6 ± 9.4 µM | 50.2 ± 12.5 µM | 21 µg/mL | 9.4 ± 0.0 µM | 6.9 ± 0.5 µM | 4 µg/mL | 15.7 ± 3.1 µM | 9 ± 1 µM | 7 µg/mL | 12.5 ± 3.1 µM | 2.2 ± 0.3 µM | 5 µg/mL | 151 ± 0.0 µM | 88.5 ± 1.6 µM | 64 µg/mL | 151 ± 0.0 µM | 128 ± 0.9 µM | 64 µg/mL
[Cl][Ag][c]1n(Cc2ccccc2)c2ccccc2[n+]1Cc1ccccn1 [5a] | 4.24 S cm^2 mol^–^1 | 3.70 S cm^2 mol^–^1 | 35.1 ± 1.1 µM | 60.2 ± 12.0 µM | 27 µg/mL | 30.1 ± 6.0 µM | 16 ± 1.7 µM | 13 µg/mL | 18.1 ± 0.0 µM | 8.5 ± 1 µM | 8 µg/mL | 9.0 ± 0.0 µM | 1.7 µM | 4 µg/mL | 145 ± 0.0 µM | 82.9 ± 1.5 µM | 64 µg/mL | 145 ± 0.0 µM | 119 ± 3.6 µM | 64 µg/mL
[Br][Ag]=[c]1n(Cc2ccccc2)c2ccccc2n1Cc1ccccn1 [5b, Bromido (1-(Pyridin-2-ylmethyl)-3-benzyl-benzimidazol-2-ylidene) Silver(I)] | 6.58 S cm^2 mol^–^1 | 5.68 S cm^2 mol^–^1 | 27.1 ± 1.2 µM | 32.8 ± 0.0 µM | 16 µg/mL | 65.7 ± 0.0 µM | 28.2 ± 2.7 µM | 32 µg/mL | 16.4 ± 0.0 µM | 9.5 ± 0.3 µM | 8 µg/mL | 16.4 ± 0.0 µM | 0.72 ± 0.15 µM | 8 µg/mL | 131 ± 0.0 µM | 75.5 ± 1.4 µM | 64 µg/mL | 131 ± 0.0 µM | 111 ± 0.2 µM | 64 µg/mL
[Cl][Ag][c]1n(Cc2ccccn2)c2ccccc2[n+]1Cc1ccccn1 [6a] | 3.75 S cm^2 mol^–^1 | 4.15 S cm^2 mol^–^1 | 38.1 ± 6.9 µM | 48.1 ± 12.0 µM | 21 µg/mL | 60.1 ± 12.0 µM | 33.6 ± 5.8 µM | 27 µg/mL | 9.02 ± 0.0 µM | 5.9 ± 0.2 µM | 4 µg/mL | 9.0 ± 0.0 µM | 1.6 ± 0.1 µM | 4 µg/mL | 144 ± 0.0 µM | 91.3 ± 0.6 µM | 64 µg/mL | 144 ± 0.0 µM | 133 ± 0.6 µM | 64 µg/mL
[Br][Ag][c]1n(Cc2ccccn2)c2ccccc2[n+]1Cc1ccccn1 [6b] | 6.13 S cm^2 mol^–^1 | 6.50 S cm^2 mol^–^1 | 14.6 ± 1 µM | 21.9 ± 5.5 µM | 10 µg/mL | 27.3 ± 5.5 µM | 13.5 ± 3.7 µM | 13 µg/mL | 13.7 ± 0.0 µM | 6.4 ± 0.2 µM | 7 µg/mL | 8.2 ± 0.0 µM | 0.47 ± 0.02 µM | 4 µg/mL | 132 ± 0.0 µM | 90.7 ± 4.5 µM | 64 µg/mL | 132 ± 0.0 µM | 105 ± 0.1 µM | 64 µg/mL
